The conditions of the data set: Crystal; DTA.

Numbers after ± are expanded uncertainties.

Turning to `CC(C)Cc1ccc(C(C)C(=O)O)cc1` (configuration not stated) [ibuprofen], the Normal melting temperature was 76.1 ± 0.5 °C.
As to `CC(C)Cc1ccc([C@H](C)C(=O)O)cc1` [(S)-2-(4-isobutylphenyl)propanoic acid], the Normal melting temperature stood at 51.1 ± 0.5 °C.

These data come from the NIST ThermoML archive (doi:10.1021/je034228o).
